# Legend:
# [1] = Antibiotic susceptibility (MIC), quality control strain; conditions: E. coli ATCC 25922, 18 h ± 2 h, aerobic, +35±2° C.
# [2] = Antibiotic susceptibility (MIC), broth microdilution / agar dilution, CLSI M07; conditions: for Minimum Inhibitory Concentration (MIC): VTT-E-193585, 48 h ± 1 h, aerobic, +35±2° C., cation-adjusted Mueller Hinton Broth, fosfomycin by agar dilution; for MIC values for VTT-E-193585 compared to E. coli ATCC 25922: comparison in words
Molecule,Minimum Inhibitory Concentration (MIC) [1] [µg/mL],Minimum Inhibitory Concentration (MIC) [2] [µg/mL],MIC values for VTT-E-193585 compared to E. coli ATCC 25922 [2]
CC1(C)S[C@@H]2[C@H](NC(=O)[C@H](N)c3ccccc3)C(=O)N2[C@H]1C(=O)O [Ampicillin],8,16,higher
C[C@@H]1O[C@@H]1P(=O)(O)O [Fosfomycin],0.5,32,higher
[H]/N=C(/N)N[C@H]1[C@H](O)[C@@H](O)[C@H](O[C@@H]2O[C@@H](C)[C@](O)(C=O)[C@H]2O[C@@H]2O[C@@H](CO)[C@H](O)[C@@H](O)[C@@H]2NC)[C@@H](N/C(N)=N\[H])[C@@H]1O [Streptomycin],4,0.5,lower or comparable
Colistin,2,4,higher
Gentamicin,0.5,0.5,lower or comparable

# — US20240254435A1, “VARIANT BACTERIAL STRAINS AND PROCESSES FOR PROTEIN OR BIOMASS PRODUCTION” (Solar Foods Oy, priority 2021, published 2024)
